system: SARS-CoV-2 dimerization loop (DL) RNA; format: binding; conditions: 2.5 μM peptide; 0.010 M HEPES pH 7.0, 0.30 M NaCl; average of two replicates

Substance | SPR response relative to parent peptide MG-FSS-m1
MGCKALRKQL(pCaaF)Y (sidechain bridge or staple) [Peptide Q2A] | substantially lower
MGCKQLAKQL(pCaaF)Y (sidechain bridge or staple) [Peptide R4A] | comparable
MGCKQARKQL(pCaaF)Y (sidechain bridge or staple) [Peptide L3A] | substantially lower
MGCKQLRKQA(pCaaF)Y (sidechain bridge or staple) [Peptide L7A] | lower
MGCKQLRKAL(pCaaF)Y (sidechain bridge or staple) [Peptide Q6A] | substantially higher
MGCAQLRKQL(pCaaF)Y (sidechain bridge or staple) [Peptide K1A] | comparable
MGCKQLRAQL(pCaaF)Y (sidechain bridge or staple) [Peptide K5A] | comparable
